Experimental data as given in US12606520B2, “Calpain-2 inhibitor compounds and methods of treatment” (WESTERN UNIVERSITY OF HEALTH SCIENCES, priority 2020, dated 2026).
Entries after “also recorded” stand apart in the source; their conditions may differ.

Key:
[1] = Stability in mouse plasma at 37° C. (residual inhibition of purified human calpain-2); format: in vitro ADME; details: β-cyclodextrin formulation, 10 μM
Experimental: NA112 (C12, 0.2 mM) was incubated with mouse plasma at 37° C. for the indicated periods of time. Aliquots were taken and the degree of inhibition of purified human calpain-2 was measured. Results were normalized to the maximum degree of inhibition (100%) measured at to.
NA112A in β-cyclodextrin formulation (10 μM) was incubated in mouse plasma at 37° C. for the indicated periods of time. Aliquots were taken and the degree of inhibition of purified human calpain-2 was measured. Results were normalized to the maximum degree of inhibition (50%) measured at t0.

calpain-2 = biological target: T1, calpain-2 (Homo sapiens, UniProt P17655); test: Inhibitory activity of NA112 isomers against calpain-2; format: biochemical; details: highest concentration tested, 3 μM
T1 sequence (P17655 1-700): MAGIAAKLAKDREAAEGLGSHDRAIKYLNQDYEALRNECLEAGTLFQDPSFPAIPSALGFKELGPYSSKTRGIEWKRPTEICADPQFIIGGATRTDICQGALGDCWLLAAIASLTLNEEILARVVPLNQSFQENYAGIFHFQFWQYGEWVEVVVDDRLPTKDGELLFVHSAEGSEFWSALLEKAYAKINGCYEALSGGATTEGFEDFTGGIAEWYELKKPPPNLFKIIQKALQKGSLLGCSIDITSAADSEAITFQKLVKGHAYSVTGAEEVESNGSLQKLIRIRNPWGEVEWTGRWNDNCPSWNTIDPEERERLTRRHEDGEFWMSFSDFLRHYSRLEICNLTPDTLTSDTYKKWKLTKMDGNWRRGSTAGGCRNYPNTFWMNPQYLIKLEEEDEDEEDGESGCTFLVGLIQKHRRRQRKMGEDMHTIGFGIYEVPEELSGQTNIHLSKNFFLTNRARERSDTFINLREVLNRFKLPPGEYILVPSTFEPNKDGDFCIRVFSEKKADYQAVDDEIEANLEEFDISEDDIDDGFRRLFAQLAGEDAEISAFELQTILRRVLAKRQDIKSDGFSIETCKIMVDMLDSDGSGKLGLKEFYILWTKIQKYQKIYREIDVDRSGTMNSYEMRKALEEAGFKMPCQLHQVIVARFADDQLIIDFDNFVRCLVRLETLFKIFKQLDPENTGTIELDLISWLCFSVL
T1 sequence (P04632 1-268 partner): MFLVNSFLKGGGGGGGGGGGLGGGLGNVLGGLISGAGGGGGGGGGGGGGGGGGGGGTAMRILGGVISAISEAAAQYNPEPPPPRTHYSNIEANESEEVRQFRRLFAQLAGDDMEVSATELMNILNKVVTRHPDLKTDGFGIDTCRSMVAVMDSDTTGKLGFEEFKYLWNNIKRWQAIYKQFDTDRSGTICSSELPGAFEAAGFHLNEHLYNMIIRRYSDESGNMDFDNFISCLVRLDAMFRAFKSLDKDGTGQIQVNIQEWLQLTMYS
Experimental: (§1) The inhibitory activity of the compounds NA112A (S-S isomer) and NA112B (S-R stereoisomer) against calpain-1 and calpain-2 were determined.

calpain-1 = biological target: T2, calpain-1 (Homo sapiens, UniProt P07384); test: Inhibitory activity of NA112 isomers against calpain-1; format: biochemical; details: highest concentration tested, 3 μM
T2 sequence (P07384 1-714): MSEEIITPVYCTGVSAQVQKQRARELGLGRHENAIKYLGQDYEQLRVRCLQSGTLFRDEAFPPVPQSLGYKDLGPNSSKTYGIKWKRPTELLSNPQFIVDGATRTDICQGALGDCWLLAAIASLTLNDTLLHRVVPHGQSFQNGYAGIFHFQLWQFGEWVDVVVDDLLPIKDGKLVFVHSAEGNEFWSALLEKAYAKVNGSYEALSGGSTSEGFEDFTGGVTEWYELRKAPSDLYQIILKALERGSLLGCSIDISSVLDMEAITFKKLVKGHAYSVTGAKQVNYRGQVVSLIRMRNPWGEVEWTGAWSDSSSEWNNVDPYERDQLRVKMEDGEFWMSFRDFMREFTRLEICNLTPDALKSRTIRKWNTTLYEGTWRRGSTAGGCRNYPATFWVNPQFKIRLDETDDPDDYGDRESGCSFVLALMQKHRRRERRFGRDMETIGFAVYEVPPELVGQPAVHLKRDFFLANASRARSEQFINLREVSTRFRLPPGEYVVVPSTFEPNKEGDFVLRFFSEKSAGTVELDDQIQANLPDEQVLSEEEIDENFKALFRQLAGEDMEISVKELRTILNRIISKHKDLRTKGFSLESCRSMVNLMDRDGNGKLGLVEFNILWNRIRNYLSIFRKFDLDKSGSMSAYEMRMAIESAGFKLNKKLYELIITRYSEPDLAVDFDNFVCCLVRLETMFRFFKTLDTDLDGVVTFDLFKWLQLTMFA
T2 sequence (P04632 1-268 partner): T1 sequence (P04632 1-268 partner)
Experimental: as §1

[2] = Epimerization/inactivation in PBS at 37° C.; format: physicochemical
[3] = biological target: T3, human calpain-1 (purified from erythrocytes, ecalpain-1) (Homo sapiens, UniProt P07384); test: Inhibition of human calpain-1 purified from erythrocytes; format: biochemical; details: highest concentration tested, 3 μM
T3 construct: human calpain-1 (purified from erythrocytes, ecalpain-1); from tissue; host or cells: human erythrocytes
T3 sequence (P07384 1-714): T2 sequence (P07384 1-714)
T3 sequence (P04632 1-268 partner): T1 sequence (P04632 1-268 partner)
Experimental: (§2) Various concentrations of NA112 in the liposomal formulation were incubated with human calpain-1 (purified from erythrocytes, ecalpain-1) or a recombinant human calpain-2 (hcalpain-2) and calpain activity assayed as in FIG. 1. IC50 were determined and transformed into Ki values (FIG. 10A, 10B). Values previously obtained with NA112 dissolved in DMSO are shown for comparison (FIG. 10B).
(§3) Cerebellar homogenates from wild-type (WT) or calpain-1 Knock-out (KO) mice were incubated with 20 μM calcium to activate calpain-1 or with 2 mM calcium to activate calpain-2, respectively, and increasing concentrations of NA184.
(§4) Like in NA112, there are 2 chiral centers in NA184. The inhibitory activity of the compounds NA184A (S-S isomer) and NA184B (S-R stereoisomer) against erythrocyte human calpain-1 (ecalpain-1) and recombinant human calpain-2 (hcalpain-2) were determined.

[4] = biological target: T4, recombinant human calpain-2 (hcalpain-2) (Homo sapiens, UniProt P17655); test: Inhibition of recombinant human calpain-2; format: biochemical; details: highest concentration tested, 3 μM
T4 sequence (P17655 1-700): T1 sequence (P17655 1-700)
T4 sequence (P04632 1-268 partner): T1 sequence (P04632 1-268 partner)
Experimental: as §2, §3, §4

| SMILES | Inactivation in mouse plasma [1] | Inhibitory activity against calpain-2 (calpain-2) | Inhibitory activity against calpain-1 (calpain-1) | Epimerization/inactivation in PBS [2] | Inhibitory activity against ecalpain-1 [3] | Inhibitory activity against hcalpain-2 [4] |
| --- | --- | --- | --- | --- | --- | --- |
| CC[C@H](NC(=O)[C@H](CC(C)C)NC(=O)NCc1ccccc1)C(=O)C(=O)NCc1cc(OC)cc(OC)c1 [NA112A, (S)-2-(3-benzylureido)-N-((S)-1-((3,5-dimethoxybenzyl)amino)-1,2-dioxopentan-3-yl)-4-methylpentanamide] | rapidly inactivated; also recorded: became inactive | expected inhibitory activity | – | – | – | – |
| CC[C@@H](NC(=O)[C@H](CC(C)C)NC(=O)NCc1ccccc1)C(=O)C(=O)NCc1cc(OC)cc(OC)c1 [NA112B] | – | no inhibitory activity | no inhibitory activity | – | – | – |
| CC[C@H](NC(=O)[C@H](CC(C)C)NC(=O)NCc1ccccc1)C(=O)C(=O)NCc1cccc(Cl)c1OC [NA184A] | – | – | – | rapidly inactivated; also recorded: rapid epimerization | expected inhibitory activity | expected inhibitory activity |
| CC[C@@H](NC(=O)[C@H](CC(C)C)NC(=O)NCc1ccccc1)C(=O)C(=O)NCc1cccc(Cl)c1OC [NA184B] | – | – | – | – | no inhibitory activity | no inhibitory activity |
